# “Also recorded” adds a separate entry of the source.
# Assays:
# A549 and H157 cells = test: Western blot of autophagy marker p62 with or without chloroquine; format: cell-based, human; details: 48 h
# Method: To assess whether the autophagy inhibitor regulates KRA-533-induced autophagy formation, A549 and H157 cells were treated with KRA-533 in the absence or presence of autophagy inhibitor chloroquine for 48 h, followed by Western blot analysis of the autophagy marker p62.
# [1] = test system: A549 xenografts bearing mutant KRAS; test: A549 lung cancer xenografts bearing KRAS mutation (G12S); format: in vivo
# Method: Tumor volume was measured once every 2 days (left panel). Tumor volumes of 6 individual mice in each group were compared on day 28 (right panel). After 28 days, the mice were sacrificed, and the tumors were removed and analyzed.
# Expression levels of active caspase-3, cleaved PARP, Beclin-1 and LC3-II in tumor tissues were analyzed by Western blot.
# To test the potency of KRA-533 in vivo, lung cancer xenografts derived from A549 cells bearing KRAS mutation (G12S) were treated with increasing doses (0, 7.5, 15, and 30 mg/kg/day) of KRA-533 i.p. for 28 days. […] To assess whether KRA-533 induced suppression of tumor growth via apoptosis and autophagy in vivo, representative samples from harvested tumor tissues were analyzed by immunohistochemistry (IHC) for active caspase-3 or LC3-II.
# [2] = Single-dose maximum tolerated dose (MTD); format: in vivo
# Method: To define the appropriate doses of KRA-533 for in vivo experimentation, standard single-dose maximum tolerated dose (MTD) was determined. Nu/Nu nude mice were treated with a single dose of 150, 300 or 400 mg/kg i.p., followed by toxicity observations. […] Based on these findings, mice might die mainly from liver and kidney damage at a single 400 mg/kg dose. Thus, the single dose MTD of KRA-533 ranges from 300 to 400 mg/kg. One tenth of single-dose MTD was contemplated (˜30-40 mg/kg) for continuous treatment, e.g., between 10 and 30 mg/kg/day.
# A549 cells = test: Apoptotic and autophagic cell death after KRAS shRNA knockdown; format: cell-based, human; details: G12S mutant KRAS depleted by KRAS shRNA; 15 μM, 48 h
# Method: To further test whether KRAS is a required target for KRA-533 to induce apoptotic and autophagic cell death, G12S mutant KRAS was depleted using KRAS shRNA from A549 cells, followed by treatment with KRA-533 (15 μM) for 48 h.
# KRAS G12C = KRAS G12C (Homo sapiens, UniProt P01116, G12C); test: In vitro cell-free GDP-GTP exchange, KRAS G12C; format: biochemical; details: with GEF (RASGRP1) and GAP (RASA1), 25° C., 60 min
# Method: (§1) GTPγS, purified GFP (RASGRP1, 180 nM) and GAP (RASA1, 180 nM) at 25° C. in the presence or absence of increasing concentrations of KRA-533.
# (§2) To test whether KRA-533 directly binds to KRAS, a thermal shift assay was employed. […] To further assess whether KRA-533 activates KRAS directly, an in vitro cell-free GDP-GTP exchange experiment was carried out. Purified WT, G12C, G12D or G13D mutant KRAS proteins were incubated with purified GEF (RASGRP1) and GAP (RASA1) proteins in reaction buffer containing [γ-35S]-GTP in the absence or presence of increasing concentrations of KRA-533 at 25° C. for 60 min. KRAS activity was quantified by liquid scintillation counting. […] These findings indicate that KRA-533 not only activates WT KRAS but also has the capacity to further enhance KRAS activity of mutant KRAS.
# KRAS S17A/K117A (AA) = target: T1, KRAS S17A/K117A (AA) (Homo sapiens, UniProt P01116, K117A/S17A); test: Thermal shift assay, purified KRAS S17A/K117A (AA); format: binding
# T1 construct: made in house
# Method: (§3) Melting temperature (Tm) values of DMSO control and 15 μM KRA-533 are shown.
# (§4) To further test this intracellularly, GFP-tagged WT, S17A, K117A and AA KRAS mutants were exogenously transfected into A549 cells. […] Activities of exogenous GFP-tagged WT and KRAS mutants were analyzed by Western blot using GFP antibody.
# KRAS K117A = target: T2, KRAS K117A (Homo sapiens, UniProt P01116, K117A); test: Thermal shift assay, purified KRAS K117A; format: binding
# T2 construct: made in house
# Method: as §3, §4
# KRAS WT = KRAS WT (Homo sapiens, UniProt P01116); test: Thermal shift assay, purified KRAS WT; format: binding; details: increasing concentrations
# Method: Melting temperature (Tm) values of DMSO Ctrl and 15 μM of KRA-533 are shown.
# as §3, §2, §4
# WT KRAS = WT KRAS (Homo sapiens, UniProt P01116); test: In vitro cell-free GDP-GTP exchange, WT KRAS; format: biochemical; details: with GEF (RASGRP1) and GAP (RASA1), 25° C., 60 min
# Method: as §1
# GTPγS, purified GFP (RASGRP1, 180 nM) and GAP (RASA1, 180 nM) at 25° C. in the presence or absence of 15 μM KRA-533. The radioactivity remaining on the protein after intensive washing was quantified by liquid scintillation.
# as §2, §4
# [3] = 0, 7.5, 15, and 30 mg/kg/day i.p. for 28 days
smiles,measurement,setting,value
"O=C(CBr)NCCCCc1ccc(C(=O)O)cc1 [KRA-533, 4-(4-(2-bromoacetamido)butyl)benzoic acid]","autophagy marker p62, KRA-533 alone",A549 and H157 cells,induced autophagy with deceased p62 level via degradation
same,"apoptosis and autophagy in tumor tissues (IHC active caspase-3, LC3-II)",[1]; [3],induced apoptosis and autophagy in tumor tissues in a dose-dependent manner
same,tumor growth,[1]; [3],suppressed tumor growth in a dose-dependent manner
same,"blood cells (WBC, RBC and PLT), BUN and ALT/AST",[1]; 7.5˜30 mg/kg/d,in the normal range
same,body weight,[1]; 7.5˜30 mg/kg/d,no weight loss
same,tolerability,[1]; 7.5˜30 mg/kg/d,well tolerated without significant toxicity
same,"histopathology of normal tissues (brain, heart, lung, liver, spleen, kidney and intestine)",[1]; 7.5˜30 mg/kg/day,no evidence of normal tissue toxicities
same,active KRAS in tumor tissues (Raf-1-RBD pull-down),[1]; tumor tissue lysates after 28 days,accumulation of active KRAS in tumor tissues
same,MTD,"[2]; mouse, in vivo, ip, Nu/Nu nude mice",300 to 400 mg/kg
same,Alanine transaminase (ALT),[2]; single dose of 400 mg/kg,significantly elevated
same,aspartate transaminase (AST),[2]; single dose of 400 mg/kg,significantly elevated
same,blood urea nitrogen (BUN),[2]; single dose of 400 mg/kg,significantly elevated
same,death of mice (time),[2]; single dose of 400 mg/kg,8 days
same,"weight loss or other toxicities (hematologic, liver and kidney function)",[2]; single dose of 150 or 300 mg/kg i.p.,did not cause weight loss or other toxicities
same,cell sensitivity to apoptotic and autophagic cell death after knockdown of mutant KRAS,A549 cells,significantly reduced cell sensitivity to the induction of apoptotic and autophagic cell death
same,"KRAS activity (liquid scintillation), KRAS G12C",KRAS G12C,further enhanced the activities of active KRAS mutants
same,"binding (thermal shift), AA (S17A/K117A) KRAS",KRAS S17A/K117A (AA),failed to bind
same,"binding (thermal shift), KRAS K117A",KRAS K117A,failed to bind
same,"melting temperature (Tm) / binding, KRAS WT",KRAS WT,Dose dependent increases in melting temperature (Tm); also recorded: could bind
same,"KRAS activity (liquid scintillation), WT KRAS",WT KRAS,activated WT KRAS to increase its activity in a dose-dependent manner; also recorded: directly activated

# Reference: patent US12144791B2, “KRAS agonists, pharmaceutical compositions, and uses in managing cancer” (Emory University, priority 2019, dated 2024)
